Test system: H3K9me3 occupancy in promoter regions
Assay: H3K9me3-ChIP sequencing of striatal tissue of YAC128 mice
Type: in vivo, mouse
Details: for Fold(YACEi/YAC) H3K9me3 ChIP occupancy: APQ-treated YAC vs YAC mice striatum
Method: ChIP for H3K9me3 binding to DNA was performed using a CHIP assay kit (Santa Cruz, Dallas, TX) as described previously[21]^,[28]. Striatal tissues from WT, vehicle treated YAC128, and APQ-treated YAC128 mice were crossed-linked with 1% formaldehyde for 20 min at room temperature. Lysates were sonicated for 30 s six times using a Bioruptor (Diagenode Inc., Denville, NJ). After centrifugation, the supernatant was diluted in CHIP dilution buffer and incubated overnight at 4 °C with anti-H3K9me3 antibody. Immune complexes were recovered by the addition of 60 µl of salmon sperm DNA/protein A agarose-50% slurry and incubation at 4 °C for 2 h with rotation. Beads were pelleted and washed with low and high salt buffer followed by LiCl buffer (x3). Immune complexes were eluted by incubation with 500 µl of fresh elution buffer (1% SDS, 0.1 M NaHCO3) and 20 µl of 5 M NaCl. DNA was cleaned by the addition of 500 mM EDTA, 1 M Tris, and proteinase K at 66 °C for 4 h. The DNA solution was extracted with a phenol/chloroform/isoamyl alcohol mixture to remove protein contaminants, followed by precipitation with 100% ethanol. After precipitation, the pellet was washed with 70% ethanol and dissolved in 20 µl DW.
The Model-based Analysis of ChIP-Seq algorithm (MACS; v. 1.4.2) was used to identify regions of H3K9me3 enrichment with the default parameters. The peaks that pass a Poisson p values threshold of 0.1 were used for further analyses[28]^,[42]. In order to obtain reliable regions of enrichment, the regions detected in more than two samples were selected and aligned to define the consensus regions using DiffBind R package (v. 2.4.8)[43]. The reads in the consensus regions were counted and DESeq2 was applied to identify DMRs[44]. The DMRs were defined as p values of ≤.05 and only DMRs in promoter region (≤3 K from transcription start site) were selected.
Among the read peaks, a total of H3K9me3-enriched 71735 sites were commonly detected using MACS in WT, vehicle-treated YAC128, and APQ-treated YAC128 mice (using DiffBind R package). The reads were re-counted in the 71,735 sites (using DESeq2) and the H3K9me3-enriched sites in promoter region (≤3 K), with p values ≤.01 were selected. Then the H3K9me3-enriched sites with 1.5-fold higher in vehicle-treated YAC128 compared to WT and 1.5-fold lower in vehicle-treated YAC128 compared to APQ-treated YAC128 were finally selected.

C=CCOc1cccc2nc(N3CCCC3)ccc12 [APQ, 5-allyloxy-2-(pyrrolidin-1-yl)quinoline]
Fold(YACEi/YAC) (H3K9me3 ChIP peak chrX_13041660_13042117, 5730405O15Rik, Promoter (<=1kb)): -3.61
Fold(YACEi/YAC) (H3K9me3 ChIP peak chrX_20364227_20364518, Rp2, Promoter (<=1kb)): -2.41
Fold(YACEi/YAC) (H3K9me3 ChIP peak chrX_20656130_20656390, Uba1, Promoter (1-2kb)): -3.37
Fold(YACEi/YAC) (H3K9me3 ChIP peak chrX_20953229_20953500, Elk1, Promoter (2-3kb)): -2.86
Fold(YACEi/YAC) (H3K9me3 ChIP peak chrX_21482622_21482887, Agtr2, Promoter (1-2kb)): -3.76
Fold(YACEi/YAC) (H3K9me3 ChIP peak chrX_51205773_51206072, Mbnl3, Promoter (<=1kb)): -4.38
Fold(YACEi/YAC) (H3K9me3 ChIP peak chrX_52575414_52575585, A630012P03Rik, Promoter (<=1kb)): -2.24
Fold(YACEi/YAC) (H3K9me3 ChIP peak chrX_53059727_53060393, C430049B03Rik, Promoter (2-3kb)): -2.78
Fold(YACEi/YAC) (H3K9me3 ChIP peak chrX_55223440_55223928, Slxl1, Promoter (2-3kb)): -3.59
Fold(YACEi/YAC) (H3K9me3 ChIP peak chrX_56214992_56215323, Gm773, Promoter (2-3kb)): -3.3
Fold(YACEi/YAC) (H3K9me3 ChIP peak chrX_56345445_56345878, Zfp449, Promoter (<=1kb)): -3.19
Fold(YACEi/YAC) (H3K9me3 ChIP peak chrX_56823574_56823879, Map7d3, Promoter (1-2kb)): -4.1
Fold(YACEi/YAC) (H3K9me3 ChIP peak chrX_57211052_57211422, Cd40lg, Promoter (<=1kb)): -3.71
Fold(YACEi/YAC) (H3K9me3 ChIP peak chrX_59587905_59588513, Fgf13, Promoter (2-3kb)): -4.9
Fold(YACEi/YAC) (H3K9me3 ChIP peak chrX_62280858_62281466, 4933402E13Rik, Promoter (2-3kb)): -2.07
Fold(YACEi/YAC) (H3K9me3 ChIP peak chrX_66814240_66814775, Mir470, Promoter (<=1kb)): -2.86
Fold(YACEi/YAC) (H3K9me3 ChIP peak chrX_68010275_68010563, Mir509, Promoter (<=1kb)): -3.86
Fold(YACEi/YAC) (H3K9me3 ChIP peak chrX_72985743_72986276, Zfp185, Promoter (1-2kb)): -2.91
Fold(YACEi/YAC) (H3K9me3 ChIP peak chrX_74085947_74086310, Mecp2, Promoter (<=1kb)): -3.17
Fold(YACEi/YAC) (H3K9me3 ChIP peak chrX_74254068_74254967, Emd, Promoter (<=1kb)): -2.9
Fold(YACEi/YAC) (H3K9me3 ChIP peak chrX_100570155_100570557, Awat1, Promoter (1-2kb)): -2.24
Fold(YACEi/YAC) (H3K9me3 ChIP peak chrX_100595739_100596091, P2ry4, Promoter (<=1kb)): -2.74
Fold(YACEi/YAC) (H3K9me3 ChIP peak chrX_103413658_103414114, Tsx, Promoter (<=1kb)): -2.74
Fold(YACEi/YAC) (H3K9me3 ChIP peak chrX_112599521_112600132, Zfp711, Promoter (<=1kb)): -3.8
Fold(YACEi/YAC) (H3K9me3 ChIP peak chrX_113186036_113186428, Chm, Promoter (<=1kb)): -3.29
Fold(YACEi/YAC) (H3K9me3 ChIP peak chrX_120315318_120315582, H2afb3, Promoter (2-3kb)): -3.46
Fold(YACEi/YAC) (H3K9me3 ChIP peak chrX_120316028_120316808, H2afb3, Promoter (2-3kb)): -3.74
Fold(YACEi/YAC) (H3K9me3 ChIP peak chrX_123101642_123102142, Cldn34c1, Promoter (1-2kb)): -3.6
Fold(YACEi/YAC) (H3K9me3 ChIP peak chrX_134057860_134058275, Cstf2, Promoter (<=1kb)): -2.34
Fold(YACEi/YAC) (H3K9me3 ChIP peak chrX_134162152_134162880, Xkrx, Promoter (<=1kb)): -2.18
Fold(YACEi/YAC) (H3K9me3 ChIP peak chrX_134757222_134757422, Mir7093, Promoter (<=1kb)): -2.8
Fold(YACEi/YAC) (H3K9me3 ChIP peak chrX_142294260_142294634, Gm5643, Promoter (2-3kb)): -2.73
Fold(YACEi/YAC) (H3K9me3 ChIP peak chrX_142390366_142390928, Acsl4, Promoter (<=1kb)): -2.3
Fold(YACEi/YAC) (H3K9me3 ChIP peak chrX_150550381_150550648, Mir3620, Promoter (2-3kb)): -2.24
Fold(YACEi/YAC) (H3K9me3 ChIP peak chrX_152231158_152231359, Kdm5c, Promoter (1-2kb)): -3.16
Fold(YACEi/YAC) (H3K9me3 ChIP peak chrX_152560343_152560717, Cldn34a, Promoter (2-3kb)): -4.14
Fold(YACEi/YAC) (H3K9me3 ChIP peak chrX_152562252_152562894, Cldn34a, Promoter (<=1kb)): -2.56
Fold(YACEi/YAC) (H3K9me3 ChIP peak chrX_153139912_153140739, Rragb, Promoter (<=1kb)): -2.81
Fold(YACEi/YAC) (H3K9me3 ChIP peak chrX_158043367_158043944, Cnksr2, Promoter (<=1kb)): -2.16
Fold(YACEi/YAC) (H3K9me3 ChIP peak chrX_159623974_159624438, Sh3kbp1, Promoter (2-3kb)): -3.85
Fold(YACEi/YAC) (H3K9me3 ChIP peak chrX_159987543_159987820, Map3k15, Promoter (<=1kb)): -3.61
Fold(YACEi/YAC) (H3K9me3 ChIP peak chrX_161115587_161115938, Scml2, Promoter (1-2kb)): -2.64
Fold(YACEi/YAC) (H3K9me3 ChIP peak chrX_162760032_162760397, Rbbp7, Promoter (<=1kb)): -3.13
Fold(YACEi/YAC) (H3K9me3 ChIP peak chrX_166236123_166236395, Gpm6b, Promoter (2-3kb)): -4.18
Fold(YACEi/YAC) (H3K9me3 ChIP peak chrX_166439947_166441101, Ofd1, Promoter (<=1kb)): -2.41
Fold(YACEi/YAC) (H3K9me3 ChIP peak chrX_166482184_166482633, Rab9, Promoter (2-3kb)): -2.11
Fold(YACEi/YAC) (H3K9me3 ChIP peak chrX_167266371_167266766, Tlr8, Promoter (2-3kb)): -3.38
Fold(YACEi/YAC) (H3K9me3 ChIP peak chrX_169321353_169321792, Hccs, Promoter (<=1kb)): -2.43
Fold(YACEi/YAC) H3K9me3 ChIP occupancy (Hsf3, Promoter (<=1kb), chrX_96456335_96456839): -2.88
Fold(YACEi/YAC) H3K9me3 ChIP occupancy (Mageb18, Promoter (1-2kb), chrX_92601496_92601857): -2.64
Fold(YACEi/YAC) H3K9me3 ChIP occupancy (Prkx, Promoter (2-3kb), chrX_77798133_77798638): -2.48
Fold(YACEi/YAC) H3K9me3 ChIP occupancy (Rbm3, Promoter (1-2kb), chrX_8147480_8147724): -2.71
Fold(YACEi/YAC) H3K9me3 ChIP occupancy (Ssxb3, Promoter (2-3kb), chrX_8592171_8592736): -2.75
Fold(YACEi/YAC) H3K9me3 ChIP occupancy (Suv39h1, Promoter (1-2kb), chrX_8076427_8076637): -2.8
Fold(YACEi/YAC) H3K9me3 ChIP occupancy (Wdr45, Promoter (1-2kb), chrX_7720185_7720585): -3.17
